Assay results from paper PMC12018048, “Intranasal kisspeptin administration rapidly stimulates gonadotropin release in humans” (eBioMedicine, 2025).
Values joined by “and” are separate entries in the source; they are usually repeats but may differ in a detail not shown here. Identical values can stand only once.

Tests used:
Format in all cases: in vivo, human
[1] = system: serum LH, FSH and testosterone; assay: Intranasal kisspeptin-54, reproductive hormone profiles in healthy men; conditions: N = 12; for AUC of the change in serum LH / AUC of the change in serum testosterone / AUC of the change in serum FSH: 4 h sampling; for AUC of the change in serum LH / AUC of the change in serum testosterone / Max increase from baseline in serum testosterone / Maximum increase from baseline in serum FSH / Maximum increase from baseline in serum LH / AUC of the change in serum FSH: mean ± SEM; for Serum FSH over the sampling period, mean difference vs placebo / Serum LH over the sampling period, mean difference vs placebo: 4 h time profile
Experimental: (§1) This was a randomised, double-blinded, crossover, placebo-controlled clinical study (Fig. 1, Fig. 2, Fig. 3a). Participants were admitted to the Clinical Research Unit (Imperial College Healthcare NHS Trust) and completed five (in healthy men) or two (in healthy women and patients with HA) study visits. […] Study visits in healthy women were conducted in the follicular phase of the menstrual cycle (i.e., days 2–10 inclusive) to control for changes in reproductive hormones over the course of the cycle and were conducted across two different menstrual cycles to allow washout.
(§2) All studies commenced at 08:00 to control for circadian hormonal changes. Participants were instructed to abstain from alcohol, caffeine, and sexual activities from 22:00 preceding each study visit. On arrival, an intravenous cannula was inserted into one antecubital fossa, and blood was sampled at timepoints −30, −15, and 0 min, before intranasal administration of kisspeptin-54 or 0.9% saline (placebo). Following participant education (described below), healthy men self-administered the following 5 interventions under supervision in random order via the intranasal route: 3.2, 6.4, 12.8, and 25.6 nmol/kg of kisspeptin-54, or placebo. Healthy women and patients with HA attended for the same protocol comparing 12.8 nmol/kg of kisspeptin-54 and placebo in random order. After administration of kisspeptin-54 or placebo at timepoint 0 min, serum levels of LH, FSH, and testosterone (in men), or oestradiol and progesterone (in women) were measured every 15 min for 4 h. Heart rate, blood pressure, and the presence of adverse symptoms were recorded every 15 min.
(§3) Kisspeptin-54 or placebo was self-administered using nasal spray devices that delivered a single volume of 100 μL per actuation (SP270+ pump, 3959 actuator, 5 mL SGD U-Save glass bottles provided by Nemera, La Verpillière, France). The kisspeptin-54 nasal spray solution formulations were prepared by reconstituting kisspeptin-54 powder stored in sterile vials on the morning of each study visit to produce a solution containing the target dose according to body weight in 400 μL.
(§4) Participants were familiarised with the procedure of intranasal application and were provided with written administration instructions ahead of each study visit, as described in.[38] In addition, participants received a 5-min training session using a dummy nasal spray device before starting the study to ensure good technique, which all participants easily understood. Under instruction and supervision from the clinical team, participants primed the nasal sprays then self-administered a total of four sprays of kisspeptin-54 or placebo per visit (i.e., 4 × 100 μL), alternating between nostrils and leaving 60 s between sprays, to allow satisfactory dissipation and avoid solution running out of the nostrils. Nasal sprays containing kisspeptin or placebo were identical in appearance, volume, and administration technique.
(§5) Blood samples were collected to measure serum reproductive hormone levels at the timepoints depicted in Fig. 1, Fig. 2, Fig. 3a. Serum samples were stored at −20 °C until analysis. Serum LH, FSH, testosterone (in men), and oestradiol and progesterone (in women) were measured using automated chemiluminescent immunoassays (Abbott Diagnostics, Maidenhead, UK: LH catalogue # 2P40-25, FSH catalogue # 7K75-25, testosterone catalogue # 07K7320, oestradiol catalogue # 7K72-25, progesterone catalogue # 7K77-25). Reference ranges: LH in international units per litre (IU/L), 2–12 (men), 2–10 (follicular), 20–60 (mid-cycle), 4–14 (luteal); FSH in IU/L, 1.7–8 (men), 1.5–8.0 (follicular and luteal), 10–50 (mid-cycle); in men: testosterone in nanomoles per litre (nmol/L), 10–30; and in women: oestradiol in picomoles per litre (pmol/L), <300 (early follicular), 400–1500 (mid-cycle), 200–1000 (luteal) and progesterone in nmol/L, <5.0 (follicular), 3.5–67 (luteal). […]

[2] = system: serum LH, FSH, oestradiol and progesterone; assay: Intranasal kisspeptin-54, reproductive hormone profiles in healthy women; conditions: N = 12
Experimental: as §1, §2, §3, §4, §5

[3] = system: serum LH, FSH, oestradiol and progesterone; assay: Intranasal kisspeptin-54, reproductive hormone profiles in patients with hypothalamic amenorrhoea
Experimental: as §1, §2, §3, §4, §5

[4] = intranasal 3.2 nmol/kg vs placebo
[5] = intranasal 6.4 nmol/kg vs placebo
[6] = intranasal 6.4 nmol/kg, two-way ANOVA
[7] = intranasal 12.8 nmol/kg vs placebo
[8] = intranasal 12.8 nmol/kg, two-way ANOVA
[9] = intranasal 25.6 nmol/kg vs placebo
[10] = follicular phase, intranasal 12.8 nmol/kg, 4 h sampling, mean ± SEM
[11] = follicular phase, intranasal 12.8 nmol/kg, mean ± SEM
[12] = intranasal 12.8 nmol/kg vs placebo, paired t-test
[13] = intranasal 12.8 nmol/kg, two-way ANOVA, 4 h time profile
[14] = intranasal 12.8 nmol/kg, N = 10 (HA) and N = 12 (healthy women)
[15] = intranasal 12.8 nmol/kg, unpaired t-test, N = 10 (HA) and N = 12 (healthy women)
[16] = patients with HA, intranasal 12.8 nmol/kg vs placebo, paired t-test, N = 10
[17] = patients with HA, intranasal 12.8 nmol/kg, two-way ANOVA, 4 h time profile, N = 10
[18] = patients with hypothalamic amenorrhoea, intranasal 12.8 nmol/kg, 4 h sampling, mean ± SEM, N = 10
[19] = patients with hypothalamic amenorrhoea, intranasal 12.8 nmol/kg, mean ± SEM, N = 10

Kisspeptin-54
FSH AUC, mean difference vs placebo [1, 4]: 47.2 h·IU/L
FSH maximum increase, mean difference vs placebo [1, 4]: 0.2 IU/L
LH AUC, mean difference vs placebo [1, 4]: 197.6 h·IU/L
LH maximum increase, mean difference vs placebo [1, 4]: 1.1 IU/L
Testosterone AUC, mean difference vs placebo [1, 4]: 457.4 nmol·h/L
Testosterone max increase, mean difference vs placebo [1, 4]: 1.5 nmol/L
AUC of the change in serum LH ([1]; intranasal 3.2 nmol/kg): 172.2 ± 64.2 h·IU/L
AUC of the change in serum testosterone ([1]; intranasal 3.2 nmol/kg): 273.6 ± 158.7 nmol·h/L
Max increase from baseline in serum testosterone ([1]; intranasal 3.2 nmol/kg): 4.0 ± 1.0 nmol/L
Maximum increase from baseline in serum FSH ([1]; intranasal 3.2 nmol/kg): 0.3 ± 0.1 IU/L
Maximum increase from baseline in serum LH ([1]; intranasal 3.2 nmol/kg): 2.5 ± 0.3 IU/L
FSH AUC, mean difference vs placebo [1, 5]: 97.6 h·IU/L
FSH maximum increase, mean difference vs placebo [1, 5]: 0.4 IU/L
LH AUC, mean difference vs placebo [1, 5]: 325.5 h·IU/L
LH maximum increase, mean difference vs placebo [1, 5]: 1.7 IU/L
Testosterone AUC, mean difference vs placebo [1, 5]: 329.7 nmol·h/L
Testosterone max increase, mean difference vs placebo [1, 5]: 0.9 nmol/L
AUC of the change in serum FSH ([1]; intranasal 6.4 nmol/kg): 37.3 ± 16.2 h·IU/L
AUC of the change in serum LH ([1]; intranasal 6.4 nmol/kg): 300.2 ± 79.2 h·IU/L
AUC of the change in serum testosterone ([1]; intranasal 6.4 nmol/kg): 145.9 ± 158.5 nmol·h/L
Max increase from baseline in serum testosterone ([1]; intranasal 6.4 nmol/kg): 3.4 ± 0.8 nmol/L
Maximum increase from baseline in serum FSH ([1]; intranasal 6.4 nmol/kg): 0.4 ± 0.1 IU/L
Serum FSH over the sampling period, mean difference vs placebo [1, 6]: 0.4 IU/L
Serum LH over the sampling period, mean difference vs placebo [1, 6]: 1.3 IU/L
FSH AUC, mean difference vs placebo [1, 7]: 156.6 h·IU/L
FSH maximum increase, mean difference vs placebo [1, 7]: 0.7 IU/L
LH AUC, mean difference vs placebo [1, 7]: 621.1 h·IU/L
LH maximum increase, mean difference vs placebo [1, 7]: 3.1 IU/L
Testosterone AUC, mean difference vs placebo [1, 7]: 654.3 nmol·h/L
Testosterone max increase, mean difference vs placebo [1, 7]: 2.4 nmol/L
AUC of the change in serum FSH ([1]; intranasal 12.8 nmol/kg): 96.3 ± 23.2 h·IU/L
AUC of the change in serum LH ([1]; intranasal 12.8 nmol/kg): 595.7 ± 98.3 h·IU/L
AUC of the change in serum testosterone ([1]; intranasal 12.8 nmol/kg): 470.4 ± 144.0 nmol·h/L
Time of maximal increase in serum testosterone ([1]; intranasal 12.8 nmol/kg): 150 min
Max increase from baseline in serum testosterone ([1]; intranasal 12.8 nmol/kg): 4.9 ± 0.7 nmol/L
Maximum increase from baseline in serum FSH ([1]; intranasal 12.8 nmol/kg): 0.7 ± 0.2 IU/L
Maximum increase from baseline in serum LH ([1]; intranasal 12.8 nmol/kg): 4.45 IU/L and 4.4 ± 0.6 IU/L
Serum FSH over the sampling period, mean difference vs placebo [1, 8]: 0.6 IU/L
Serum LH over the sampling period, mean difference vs placebo [1, 8]: 2.5 IU/L
Serum testosterone, mean difference vs placebo at peak levels from 120 min [1, 8]: 1.91 nmol/L
FSH AUC, mean difference vs placebo [1, 9]: 147.6 h·IU/L
FSH maximum increase, mean difference vs placebo [1, 9]: 0.7 IU/L
LH AUC, mean difference vs placebo [1, 9]: 574.4 h·IU/L
LH maximum increase, mean difference vs placebo [1, 9]: 2.9 IU/L
Testosterone AUC, mean difference vs placebo [1, 9]: 630.3 nmol·h/L
Testosterone max increase, mean difference vs placebo [1, 9]: 3.1 nmol/L
AUC of the change in serum FSH ([1]; intranasal 25.6 nmol/kg): 87.3 ± 66.2 h·IU/L
AUC of the change in serum LH ([1]; intranasal 25.6 nmol/kg): 549.0 ± 108.6 h·IU/L
AUC of the change in serum testosterone ([1]; intranasal 25.6 nmol/kg): 446.5 ± 287.4 nmol·h/L
Max increase from baseline in serum testosterone ([1]; intranasal 25.6 nmol/kg): 5.6 ± 1.6 nmol/L
Maximum increase from baseline in serum FSH ([1]; intranasal 25.6 nmol/kg): 0.8 ± 0.3 IU/L
Maximum increase from baseline in serum LH ([1]; intranasal 25.6 nmol/kg): 4.3 ± 0.6 IU/L
Serum LH over the sampling period, mean difference vs placebo ([1]; intranasal 25.6 nmol/kg, two-way ANOVA): 2.3 IU/L
Time of peak stimulation of serum LH after administration ([1]; intranasal 3.2-25.6 nmol/kg): 30 to 45 min
AUC of the change in serum FSH [2, 10]: -36.1 ± 23.4 h·IU/L
AUC of the change in serum LH [2, 10]: 96.0 ± 45.8 h·IU/L
Maximum increase from baseline in serum FSH [2, 11]: 0.3 ± 0.1 IU/L
Maximum increase from baseline in serum LH [2, 11]: 1.4 ± 0.3 IU/L
FSH AUC, mean difference vs placebo [2, 12]: 76.4 h·IU/L
FSH maximum increase, mean difference vs placebo [2, 12]: 0.4 IU/L
LH AUC, mean difference vs placebo [2, 12]: 179.8 h·IU/L
LH maximum increase, mean difference vs placebo [2, 12]: 1.0 IU/L
Effect on circulating oestradiol and progesterone levels ([2]; intranasal 12.8 nmol/kg, acute 4-h time-course): no significant effects
Serum FSH over time, mean difference vs placebo [2, 13]: 0.3 IU/L
Serum LH over time, mean difference vs placebo [2, 13]: 0.7 IU/L
Maximal FSH increase, patients with HA relative to healthy women [3, 14]: over 10 fold
Maximal LH increase, patients with HA relative to healthy women [3, 14]: over 3 fold
Maximal FSH increase, mean difference patients with HA vs healthy women [3, 15]: 2.77 IU/L
Maximal LH increase, mean difference patients with HA vs healthy women [3, 15]: 2.95 IU/L
FSH AUC, mean difference vs placebo [3, 16]: 580.0 h·IU/L
FSH maximum increase, mean difference vs placebo [3, 16]: 3.1 IU/L
LH AUC, mean difference vs placebo [3, 16]: 756.9 h·IU/L
LH maximum increase, mean difference vs placebo [3, 16]: 4.3 IU/L
Time of maximal stimulation of serum LH post-administration ([3]; patients with HA, intranasal 12.8 nmol/kg, N = 10): 30 to 45 min
Effect on circulating oestradiol and progesterone levels ([3]; patients with HA, intranasal 12.8 nmol/kg, acute 4-h time-course, N = 10): no significant effects
Serum FSH over time, mean difference vs placebo [3, 17]: 2.35 IU/L
Serum LH over time, mean difference vs placebo [3, 17]: 3.0 IU/L
AUC of the change in serum FSH [3, 18]: 474.9 ± 237.3 h·IU/L
AUC of the change in serum LH [3, 18]: 600.6 ± 146.7 h·IU/L
Maximum increase from baseline in serum FSH [3, 19]: 3.1 ± 0.3 IU/L
Maximum increase from baseline in serum LH [3, 19]: 4.4 ± 0.2 IU/L
